Assay results published in publication PMC9686339, “Bioassay-guided isolation of Fenghuang Dancong tea constituents with α-glucosidase inhibition activities” (Frontiers in Nutrition, 2022).
Where two headings read alike, the source gives them in different places.

Legend:
α-glucosidase [1] = tested on: α-glucosidase; set-up: method as in PMID 30236734; details: cited from earlier work
α-glucosidase [2] = assay: α-glucosidase inhibition assay (p-NPG substrate); format: biochemical; details: pH 6.8, 37°C
Description: This experiment was carried out according to the literature ([11]). Briefly, the test sample was dissolved in solutions (SS) with DMSO as the solvent. p-NPG and α-glucosidase were, respectively mixed with phosphate buffer (PB, 60 mM phosphate, pH 6.8) and used as stock solutions. The concentration of α-glucosidase solution (GS) was 0.5 U/ml and that of p-NPG solution (NS) was 5 mM. In addition, four different solutions (A, B, C and D) were prepared: Solution A contained 112 μl PB, 20 μl GS, and 8 μl SS; Solution B contained 112 μl PB and 20 μl GS; Solution C contained 112 μl PB, 8 μl SS, and 20 μl GS; and Solution D contained 132 μl PB and 8 μl DMSO. After starting each reaction at 37°C, p-nitrophenol was quantified by measuring the absorbance at 405 nm with a UV–vis spectrophotometer. The inhibition rate was calculated according to equation (1):
(1) Inhibition rate (%)= [((Aas − Bas)[…]) / (Aas −Bas)][…],
where Aas, Bas, Cas and Das are the absorbances of solution A, B, C and D, respectively. The sample concentration that inhibited 50% α-glucosidase activity was defined as the IC50value.

HepG2 cells = assay: Glucose consumption assay in HepG2 cells; format: cell-based; details: 0.18 mg/L, 24 h, medium with 12.0 mM glucose
Description: Here, HepG2 cells were used to evaluate the glucose consumption of the isolated compounds according to a method described in the literature ([12]). Briefly, HepG2 cells were cultured for 24 h. Subsequently, they were transferred from DMEM medium (containing FBS, PEM and SM) to another DMEM medium (containing 12.0 mM glucose). Then, HepG2 cells and the test samples with a concentration of 0.18 mg/L were incubated together for another 24 h. The glucose consumption was obtained by measuring the glucose content of the cell culture supernatant with a glucose kit.

α-glucosidase [3] = target: α-glucosidase; set-up: method as in PMID 28554631; details: constituent of Yingde black tea; read-out: IC50 of α-glucosidase inhibition; cited from earlier work
[4] = Liposolubility (qualitative observation); format: physicochemical
α-glucosidase [5] = assay: Enzyme kinetic experiments on α-glucosidase (reversibility, Lineweaver-Burk plots, secondary replot); format: biochemical
Text: The reversibility of enzyme inhibition can be determined according to the influence of sample concentration and enzyme concentration on enzyme activity. […] This implied that 1 was a reversible α-glucosidase inhibitor ([16]). The reversibility of the inhibition of α-glucosidase by different flavonoids has been studied extensively ([17]). However, definitive conclusions cannot been drawn about the relationship between the structure of flavonoids and the reversibility of the inhibition of α-glucosidase ([18]).
The double-reciprocal diagram, based on a Lineweaver–Burk plot, is widely used to investigate inhibitory kinetics of compounds on enzymes. […] Thus, the complex formed by the combination of compound 1 with substrate and α-glucosidase led to the inactivation of the latter. In addition, the number of binding sites between the compound and α-glucosidase can be obtained by a second linear fitting of the concentration of compound 1 and Y-intercept, which is shown in Figure 4D. […] Through further calculation, the binding constant was obtained as 4.58 × 10^4 L/mol. There were obvious differences in the inhibition mechanism of different types of flavonoids on α-glucosidase. […] The above facts indicate that the mechanisms of action of flavonoids on glucosidase are diverse and complex.

O=c1c(O)c(-c2ccccc2)oc2cc(O)cc(O)c12 [galangin]
Number of binding sites with α-glucosidase (α-glucosidase [1]): one
Type of α-glucosidase inhibition (α-glucosidase [1]): mixed inhibition of competitive inhibition and non-competitive inhibition

ameridone E [compound 5]
IC50 (α-glucosidase [2]): 81.7 ± 2.72 µM
Glucose consumption (HepG2 cells): 9.06 ± 0.15 mmol/L

ameridone D [compound 4]
IC50 (α-glucosidase [2]): 76.5 ± 3.52 µM
Glucose consumption (HepG2 cells): 8.30 ± 0.33 mmol/L

amelliaone A
IC50 (α-glucosidase [3]): 10.2 µM

COc1ccc([C@H]2CC(=O)c3c(cc(O)c(/C=C(\C)CCC=C(C)C)c3O)O2)cc1O [compound 2, (R,E)-6-(2,6-dimethylhepta−1,5-dien-1-yl)-5,7-dihydroxy-2-(3-hydroxy-4-methoxyphenyl) chroman-4-one]
IC50 (α-glucosidase [2]): 33.2 ± 2.21 µM
Glucose consumption (HepG2 cells): 9.40 ± 0.12 mmol/L
Liposolubility [4]: almost the same

COc1ccc([C@H]2CC(=O)c3c(cc(O)c(/C=C(/C)CCC=C(C)C)c3O)O2)cc1O [compound 1, (R, z)-6-(2,6-xylheptane-1,5-dien-1-yl)-5,7-dihydroxy-2-(3-hydroxy-4-methoxyphenyl) chroman-4-one]
IC50 (α-glucosidase [2]): 7.51 µM
Type of α-glucosidase inhibition (α-glucosidase [5]; Lineweaver-Burk plot): non-competitive
Binding constant with α-glucosidase (α-glucosidase [5]; calculated from secondary replot): 45800 L/mol
Reversibility of the inhibition of α-glucosidase (α-glucosidase [5]; enzyme concentration vs enzyme activity at a series of sample dosages): reversible
Number of binding sites with α-glucosidase (α-glucosidase [5]; secondary replot of Y-intercept vs concentration): one
Glucose consumption (HepG2 cells): 10.58 ± 0.18 mmol/L
Liposolubility [4]: excellent
melting point: 165 °C

CC1=CC[C@H](C)C(c2c(O)cc3occ(-c4ccc(O)cc4)c(=O)c3c2O)=CC1 [compound 3, (S)-6-(4,7-dimethylcyclohepta-1,4-dien-1-yl)-5,7-dihydroxy-3-(4-hydroxyphenyl)−4H-chromen-4-one]
IC50 (α-glucosidase [2]): 56.4 ± 2.11 µM
Glucose consumption (HepG2 cells): 8.98 ± 0.39 mmol/L
Liposolubility [4]: slightly inferior to the others
